We go through 52 compounds from PubChem BioAssay AID1996.

≈ marks a conversion by molar mass, not a printed value. Bounds are passed on as bounds.

For this data set the following is noted: buffer; pH 7.4; 200.0 µM.
Broadly, the solubility (kinetic) is the concentration staying in solution when a stock, usually in DMSO, is diluted into the medium. With `Cn1c(-c2ccccc2)c[n+]2c1CCCCC2.[Br-]`, the solubility (kinetic) was over 46.1 µg/mL.

`FC(F)(F)c1cccnc1Oc1ccc(C2=NCCS2)cc1`: the kinetic solubility is 0.6 µg/mL (≈ 1.85 µM).

Turning to `CC1CCN(C(=O)CNC(=O)Cc2ccccc2)CC1`, the solubility (kinetic) was 40.9 µg/mL (≈ 149 µM).

For `Cc1cc(C)nc(N2CCCC(C(=O)NC3CC3)C2)n1` (configuration not stated), the solubility (kinetic) is over 41.2 µg/mL.

`CC1=C(C(=O)N(C)C)C(c2ccc(C)s2)NC(=S)N1` (configuration not stated): the kinetic solubility worked out at 31.4 µg/mL (≈ 106 µM).

Turning to `CCc1ccc(OCc2cnc(Cl)s2)cc1`, the kinetic solubility is under 0.5 µg/mL.

With `COc1ccccc1NS(=O)(=O)c1cc(N)ccc1N1CCCC1`, the solubility (kinetic) was determined as 21.4 µg/mL (≈ 61.6 µM).

The compound `C=CCn1c(Oc2ccccc2F)nc2c1c(=O)n(C)c(=O)n2C` showed a kinetic solubility of over 49.5 µg/mL.

The compound `COc1ccc(C(=O)Nc2cc3c4c(c2)C(C)C(=O)N4CCC3)cc1` (configuration not stated) yielded a kinetic solubility of 38.6 µg/mL (≈ 115 µM).

In turn, `CC1(C)CC(=O)C2=C(C1)NC(=O)NC2c1ccc([N+](=O)[O-])cc1` (configuration not stated) gave a kinetic solubility of over 47.3 µg/mL.

Turning to `S=C1NCN(C2CCCCC2)CN1c1ccccc1`, the kinetic solubility is over 41.3 µg/mL.

`O=C(NC(=O)c1ccccc1Cl)Nc1ccc(-c2cnco2)cc1` came in with a kinetic solubility of under 0.2 µg/mL.

`O=C(CSc1ccccc1)NC1CCCCCCC1` came in with a solubility (kinetic) of 40.6 µg/mL (≈ 146 µM).

For the compound `COc1cccc(NS(=O)(=O)c2ccc3c(c2)CC(=O)N3)c1`, the kinetic solubility was over 47.8 µg/mL.

`CC(=O)c1c(C)[nH]c(C(=O)Nc2cccc(C#N)c2)c1C` yielded a kinetic solubility of 10.8 µg/mL (≈ 38.4 µM).

In the case of `O=C(O)c1cccc(N(CCO)CCO)c1`, the solubility (kinetic) is over 33.8 µg/mL.

For `COc1ccc(CCNC(=O)c2cccnc2SC)cc1`, the solubility (kinetic) came out at 16 µg/mL (≈ 52.9 µM).

Regarding `O=C(Nc1cccc2ccccc12)c1ccccc1Cl`, the kinetic solubility amounted to 1.7 µg/mL (≈ 6.03 µM).

Compound `O=S(=O)(Nc1ccc(C(F)(F)F)cc1)c1cccs1` registered a kinetic solubility of 45.1 µg/mL (≈ 147 µM).

In turn, `CCn1c(OC)nc2c1c(=O)n(C)c(=O)n2C` returned a solubility (kinetic) of over 35.7 µg/mL.

For `O=C(c1c(F)cccc1Cl)N1CCN(c2ccccn2)CC1`, the solubility (kinetic) is over 48 µg/mL.

`Cc1cc(=O)[nH]c(-c2ccc(C(F)(F)F)cc2)n1` yielded a solubility (kinetic) of over 38.1 µg/mL.

Compound `CCc1c(C(=O)NC(C)C2CCCO2)csc1C` (configuration not stated) had a solubility (kinetic) of 35.9 µg/mL (≈ 134 µM).

Take `CCN(CC(=O)NC1CC1)S(=O)(=O)c1ccc(OC)cc1`: the solubility (kinetic) was over 46.9 µg/mL.

For `N#Cc1ccc(CN2C=NS(=O)(=O)c3ccccc32)cc1`, the solubility (kinetic) was 43.7 µg/mL (≈ 147 µM).

In the case of `Cc1ccc(C(=O)N2c3ccccc3OCC2C)cc1` (configuration not stated), the solubility (kinetic) worked out at 37 µg/mL (≈ 138 µM).

In turn, `CC(=O)c1c(C)[nH]c(C(=O)Nc2cccc(C)n2)c1C` came in with a solubility (kinetic) of 21.4 µg/mL (≈ 78.9 µM).

The compound `O=C(CN1C(=O)NC2(CCCCC2)C1=O)NCc1ccc2c(c1)OCO2` showed a solubility (kinetic) of 42.8 µg/mL (≈ 119 µM).

Turning to `NC(=O)COC(=O)c1ccccc1OCc1ccc(Cl)cc1`, the kinetic solubility worked out at 7.2 µg/mL (≈ 22.5 µM).

`Cn1c(=O)c2c(nc(N3CCc4ccccc4C3)n2C)n(C)c1=O` had a solubility (kinetic) of 43.2 µg/mL (≈ 133 µM).

Compound `Cc1ccc(CNC(=O)c2nccnc2C(=O)O)cc1` showed a kinetic solubility of over 40.7 µg/mL.

Regarding `COc1ccc(NC(=O)c2ccc3c(c2)OCCO3)cc1OC`, the kinetic solubility was found to be 10.3 µg/mL (≈ 32.7 µM).

In turn, `CN(NC(=O)c1ccccc1F)c1ccc([N+](=O)[O-])cn1` displayed a solubility (kinetic) of over 43.5 µg/mL.

Turning to `O=C(COC(=O)c1ccc(F)cc1F)Nc1ccc(Cl)cn1`, the kinetic solubility was found to be 3.9 µg/mL (≈ 11.9 µM).

As for `COc1cc(CC(=O)Nc2nc(C)cs2)cc(OC)c1OC`, the kinetic solubility is 42.9 µg/mL (≈ 133 µM).

Compound `Cc1c(Cl)cccc1NC(=S)Nc1ccc(S(=O)(=O)Nc2ncccn2)cc1` came in with a solubility (kinetic) of 64.9 µg/mL (≈ 150 µM).

`CC1CN(C(=O)COC(=O)c2ccc(C#N)cc2)CC(C)O1` (configuration not stated) came in with a solubility (kinetic) of over 45.3 µg/mL.

`CC(NC(=S)Nc1ccc(F)cc1)c1ccccc1` (configuration not stated) returned a solubility (kinetic) of 27.7 µg/mL (≈ 101 µM).

`CCCCn1c(O)c(/C=C2\C=Nc3ccccc32)c(=O)[nH]c1=O`: the kinetic solubility amounted to 3.1 µg/mL (≈ 9.96 µM).

`C=CCn1c(-c2ccc(Cl)cc2)cnc1SC(C)C(N)=O` (configuration not stated) registered a solubility (kinetic) of 7.1 µg/mL (≈ 22.1 µM).

For the compound `Cn1c(N)c(C(=O)COC(=O)/C=C/c2ccc(Cl)c(Cl)c2)c(=O)n(C)c1=O`, the kinetic solubility worked out at 2.9 µg/mL (≈ 7.03 µM).

With `Clc1ccc(OCC#CCN2CCCC2)cc1.O=C(O)C(=O)O`, the solubility (kinetic) is 45.1 µg/mL.

`CCOc1ncccc1C(=O)OCc1c(F)cccc1Cl` displayed a kinetic solubility of 4.6 µg/mL (≈ 14.9 µM).

With `COc1ccc(NC(=O)CN(C)C2=NS(=O)(=O)c3ccccc32)cc1Cl`, the kinetic solubility came to 4.4 µg/mL (≈ 11.2 µM).

`Cc1ccc(C(=O)c2ccccc2C(=O)OCC(=O)N2CCCC2)cc1` showed a solubility (kinetic) of over 52.7 µg/mL.

In turn, `Oc1ccc(Cl)cc1CNc1cnc2ccccc2c1` displayed a kinetic solubility of 1.2 µg/mL (≈ 4.21 µM).

In turn, `NS(=O)(=O)c1ccc(C(=O)Nc2ccc(-c3nc4cccnc4s3)cc2)cc1` registered a solubility (kinetic) of 2.5 µg/mL (≈ 6.09 µM).

`COc1cccc(CN2CCCCC2C(=O)O)c1` (configuration not stated) had a kinetic solubility of over 37.4 µg/mL.

For `CN(C)C(=O)Oc1ccc2c(c1)O/C(=C\c1cccc([N+](=O)[O-])c1)C2=O`, the solubility (kinetic) was under 0.4 µg/mL.

As for `O=C(Nc1ccccc1C(=O)Nc1cccnc1)c1ccccc1`, the kinetic solubility was 6.3 µg/mL (≈ 19.9 µM).

`Cn1cncc1C(=O)c1ccccc1` had a kinetic solubility of over 27.9 µg/mL.

The compound `Cc1cc(=O)[nH]c(Nc2ccccc2C)n1` yielded a kinetic solubility of over 32.3 µg/mL.
